# Laboratory results reported in US6544962B1, “Methods for treating cellular proliferative disorders” (Matrix Pharmaceutical, Inc., priority 2000, dated 2003).
# How the values were obtained:
# [1] = tested on: A549 Human NSCLC Xenografts; assay: Anti-tumor activity, A549 human NSCLC xenografts, multiple dose; type: in vivo, nu/nu mice; conditions: i.p.; for TVQT (days) (M ± SE), tumor volume quadrupling time: FMdC or gemcitabine 20 mg/kg Day 0, 3, 7, 10, CDDP 4 mg/kg Day 0, 7, FMdC 15 minutes prior to cisplatin; for TGD (days) (M ± SE), tumor growth delay: FMdC or gemcitabine 20 mg/kg Day 0, 3, 7, 10, CDDP 4 mg/kg Day 0, 7, difference of TVQT vs untreated control
# Description: This example evaluated the effect of FMdC in combination with cisplatin in a human non-small-cell lung cancer (NSCLC) xenograft model. This combination was compared to the administration of the combination of gemcitabine with cisplatin. Gemcitabine (Gemzar®, Eli Lilly and Company) is 2′-deoxy-2′,2′-difluorocytidine (dFdC).
# (§1) Xenogeneic NSCLC tumors of A549 cells (available through ATCC, Rockville, Md.) were induced by intradermal injection of approximately 5×10^6 cells into the flanks of female nu/nu mice. Two to three weeks after tumor cell inoculation, when the tumors were approximately 10 mm^3 in size, treatment with FMdC, gemcitabine or cisplatin solution was administered intraperitoneally (i.p.) in a volume of approximately 10 μL per gram of mouse body weight. Six to eight animals were used per treatment group.
# (§2) The injectable solutions were prepared as follows: Lyophilized FMdC was reconstituted with sterile saline to a concentration of 2 or 20 mg/mL; gemcitabine was reconstituted with sterile saline to a concentration of 2 mg/mL; and cisplatin solution was prepared from lyophilized cisplatin (Cisplatin for Injection, David Bull Laboratories) by reconstitution with sterile water to a concentration of 0.4 or 0.6 mg/mL.
# For this multiple treatment regimens, FMdC or gemcitabine was administered twice a week for two weeks at 20 mg/kg and cisplatin was administered once a week for two weeks at 4 mg/kg. FMdC was administered by injection 15 minutes prior to the administration of cisplatin.
# (§3) Tumor growth and animal body weight were determined twice weekly for up to 30 days. Tumor volume quadrupling time (TVQT) was used as the study endpoint. Tumor growth delay (TGD) is the difference between TVQTs of a treated group and untreated control.
# [2] = tested on: Calu-6 Human NSCLC Xenografts; assay: Influence of time interval between FMdC and CDDP, Calu-6 human NSCLC xenografts, single dose; type: in vivo, nu/nu mice; conditions: single agent, single dose i.p.; FMdC 200 mg/kg, CDDP 6 mg/kg
# Description: (§4) This example evaluated the effect of FMdC in combination with cisplatin in two human non-small-cell lung cancer (NSCLC) xenograft models. This example examined the influence of the time interval between FMdC and cisplatin administration.
# as §1, with “A549 cells or Calu-6” for “A549”, “FMdC and/or” for “FMdC, gemcitabine or”
# as §2, with “mg/mL;” for “mg/mL; gemcitabine”
# as §3
# Calu-6 = assay: MTT cell growth inhibition assay, Calu-6 lung carcinoma cells; type: cell-based, human; conditions: Calu-6 cells, 72 hours exposure
# Procedure: (§5) The antiproliferative activity of FMdC in combination with cisplatin on growth inhibition in human carcinoma cell lines in vitro was studied using the following method.
# (§6) Two lung carcinoma cell lines, A549 and Calu-6, (available through ATCC, Rockville, Md.), were cultured in F12K medium with 10% fetal bovine serum at an atmosphere of 5% CO2 at 37° C. All cells were exposed to both FMdC and cisplatin in different concentrations for 72 hours.
# (§7) Cell growth inhibition was determined by measuring the metabolic activity of cells using the MTT (tetrazolium salt) assay. For the MTT assays, the cells were seeded at 4×10^3 in 100 μL per well in a 96-well microtiter culture plate. The concentration of FMdC ranged from 10 nM to 100 μM and the concentration of cisplatin ranged from 1 μM to 10 mM. At the end of the treatment, tetrazolium salt (MTT) was added to each well and then solubilized. The microtiter plate was then measured (O.D. at 570 nm) using an ELISA plate reader. The 50% inhibitory concentrations (IC50) values of FMdC and cisplatin as single agents and in combination were determined.
# [3] = tested on: A549 Human NSCLC Xenografts; assay: Influence of time interval between FMdC and CDDP, A549 human NSCLC xenografts, single dose; type: in vivo, nu/nu mice; conditions: single agent, single dose i.p.; FMdC 200 mg/kg, CDDP 6 mg/kg
# Description: as §4
# as §1, with “A549 cells or Calu-6” for “A549”, “FMdC and/or” for “FMdC, gemcitabine or”
# as §2, with “mg/mL;” for “mg/mL; gemcitabine”
# as §3
# A549 = assay: MTT cell growth inhibition assay, A549 lung carcinoma cells; type: cell-based, human; conditions: 72 hours exposure
# Procedure: as §5, §6, §7
SMILES,"TVQT (days) (M ± SE), tumor volume quadrupling time [1]","TGD (days) (M ± SE), tumor growth delay [1]",TGD (days) (M ± SE) [2],TVQT (days) (M ± SE) [2],Cell growth inhibition / cell death (MTT assay) (Calu-6),TGD (days) (M ± SE) [3],TVQT (days) (M ± SE) [3],Cell growth inhibition / cell death (MTT assay) (A549)
"N.N.[Cl][Pt][Cl] [CDDP, cis-diamminedichloroplatinum]",18.1 ± 0.9,1.3 ± 1.5,8.8 ± 1.6,18.1 ± 1.5,not effective,1.9 ± 2.0,16.1 ± 1.8,not effective
"Nc1ccn([C@@H]2O[C@H](CO)[C@@H](O)/C2=C\F)c(=O)n1 [FMdC, (E)-2′-deoxy-2′-(fluoromethylene)cytidine]",19.8 ± 1.1,3.0 ± 1.6,2.0 ± 0.6,11.3 ± 0.4,not effective,3.6 ± 1.3,17.8 ± 1.0,not effective
"Nc1ccn([C@@H]2O[C@H](CO)[C@@H](O)C2(F)F)c(=O)n1 [Gemcitabine, 2′-deoxy-2′,2′-difluorocytidine]",18.7 ± 1.0,1.9 ± 1.6,–,–,–,–,–,–
